{"source": "paper PMC5218480", "about": "(PLoS ONE, 2017)", "test_system": "MV-4-11 cells", "assay": "Gene expression microarray analysis (Affymetrix PrimeView) and GSEA", "assay_type": "cell-based, human", "design": "RFU PODN (11730768_x_at) / Fold change /veh PODN (11730768_x_at) / RFU LINC00158 (11744669_a_at) / Fold change /veh LINC00158 (11744669_a_at) / RFU DUSP10 (11751237_a_at) / Fold change /veh DUSP10 (11751237_a_at) / RFU ID3 (11757404_x_at) / Fold change /veh ID3 (11757404_x_at) / RFU PLEKHG5 (11737974_s_at) / Fold change /veh PLEKHG5 (11737974_s_at) / RFU LRRC4B (11730491_at) / Fold change /veh LRRC4B (11730491_at) / RFU GIMAP4 (11747438_a_at) / Fold change /veh GIMAP4 (11747438_a_at) / RFU KRT8 (11758183_x_at) / Fold change /veh KRT8 (11758183_x_at) / RFU CNN1 (11734310_a_at) / Fold change /veh CNN1 (11734310_a_at) / RFU VPS37D (11726825_at) / Fold change /veh VPS37D (11726825_at) / RFU C10orf10 (11716522_x_at) / Fold change /veh C10orf10 (11716522_x_at) / RFU KIR2DL2 /// KIR2DL4 /// KIR2DL5A /// KIR2DL5B /// KIR2DS1 /// KIR2DS2 /// KIR2DS3 /// KIR2DS4 /// KIR3DL3 /// KIR3DL3 /// KIR3DS1 (11738374_at) / Fold change /veh KIR2DL2 /// KIR2DL4 /// KIR2DL5A /// KIR2DL5B /// KIR2DS1 /// KIR2DS2 /// KIR2DS3 /// KIR2DS4 /// KIR3DL3 /// KIR3DL3 /// KIR3DS1 (11738374_at) / RFU C1QL1 (11718748_at) / Fold change /veh C1QL1 (11718748_at) / RFU TMPRSS4 (11747572_a_at) / Fold change /veh TMPRSS4 (11747572_a_at) / RFU HAMP (11756126_x_at) / Fold change /veh HAMP (11756126_x_at) / RFU RNFT2 (11725882_a_at) / Fold change /veh RNFT2 (11725882_a_at) / RFU NR4A2 (11747474_a_at) / Fold change /veh NR4A2 (11747474_a_at) / RFU ABCC12 (11746883_a_at) / Fold change /veh ABCC12 (11746883_a_at) / RFU TMEM136 (11760407_x_at) / Fold change /veh TMEM136 (11760407_x_at) / RFU CLDN22 /// WWC2 (11732394_at) / Fold change /veh CLDN22 /// WWC2 (11732394_at) / RFU HLA-DPB1 (11760878_x_at) / Fold change /veh HLA-DPB1 (11760878_x_at) / RFU SPINT1 (11716480_a_at) / Fold change /veh SPINT1 (11716480_a_at) / RFU GAP43 (11754022_s_at) / Fold change /veh GAP43 (11754022_s_at) / RFU A4GNT (11735810_at) / Fold change /veh A4GNT (11735810_at) / RFU PRB3 (11715151_x_at) / Fold change /veh PRB3 (11715151_x_at) / RFU TUBB4B (11761932_at) / Fold change /veh TUBB4B (11761932_at) / RFU CAPN14 (11732068_a_at) / Fold change /veh CAPN14 (11732068_a_at) / RFU TMCC2 (11721928_a_at) / Fold change /veh TMCC2 (11721928_a_at) / RFU IRGQ (11745062_a_at) / Fold change /veh IRGQ (11745062_a_at) / RFU FAM174B (11720279_a_at) / Fold change /veh FAM174B (11720279_a_at) / RFU TMPRSS4 (11748680_a_at) / Fold change /veh TMPRSS4 (11748680_a_at) / RFU FAM212B (11763350_a_at) / Fold change /veh FAM212B (11763350_a_at) / RFU PLEKHG5 (11743358_a_at) / Fold change /veh PLEKHG5 (11743358_a_at) / RFU ZSCAN30 (11745921_a_at) / Fold change /veh ZSCAN30 (11745921_a_at) / RFU CMKLR1 (11741424_a_at) / Fold change /veh CMKLR1 (11741424_a_at) / RFU LOC101060620 /// MAPK8IP1 (11723275_at) / Fold change /veh LOC101060620 /// MAPK8IP1 (11723275_at) / RFU SPTSSB (11747773_x_at) / Fold change /veh SPTSSB (11747773_x_at) / RFU PRSS12 (11739890_at) / Fold change /veh PRSS12 (11739890_at) / RFU BIN1 (11741810_x_at) / Fold change /veh BIN1 (11741810_x_at) / RFU WNT11 (11732464_a_at) / Fold change /veh WNT11 (11732464_a_at) / RFU C10orf10 (11716521_a_at) / Fold change /veh C10orf10 (11716521_a_at) / RFU C5orf56 (11738089_at) / Fold change /veh C5orf56 (11738089_at) / RFU CYB561 (11721691_x_at) / Fold change /veh CYB561 (11721691_x_at) / RFU ANKRD19P (11752326_a_at) / Fold change /veh ANKRD19P (11752326_a_at) / RFU OR2T12 /// OR2T33 /// OR2T8 (11738714_s_at) / Fold change /veh OR2T12 /// OR2T33 /// OR2T8 (11738714_s_at) / RFU VCAN (11748164_a_at) / Fold change /veh VCAN (11748164_a_at) / RFU JSRP1 (11732532_at) / Fold change /veh JSRP1 (11732532_at) / RFU KRTAP10-11 (11738290_x_at) / Fold change /veh KRTAP10-11 (11738290_x_at) / RFU MYO3A (11730013_a_at) / Fold change /veh MYO3A (11730013_a_at) / RFU EBF3 (11725865_a_at) / Fold change /veh EBF3 (11725865_a_at) / RFU CAMK2N1 (11719241_x_at) / Fold change /veh CAMK2N1 (11719241_x_at) / RFU C5orf56 (11738088_a_at) / Fold change /veh C5orf56 (11738088_a_at) / RFU OLFML3 (11715873_a_at) / Fold change /veh OLFML3 (11715873_a_at) / RFU LOC100653217 /// NTM (11731650_a_at) / Fold change /veh LOC100653217 /// NTM (11731650_a_at) / RFU MAPK11 (11762145_a_at) / Fold change /veh MAPK11 (11762145_a_at) / RFU FIZ1 (11724087_x_at) / Fold change /veh FIZ1 (11724087_x_at) / RFU OASL (11726364_x_at) / Fold change /veh OASL (11726364_x_at) / RFU SOX15 (11748057_x_at) / Fold change /veh SOX15 (11748057_x_at) / RFU CD79A (11719716_a_at) / Fold change /veh CD79A (11719716_a_at) / RFU HIST1H1D (11736915_at) / Fold change /veh HIST1H1D (11736915_at) / RFU CASKIN2 (11723855_a_at) / Fold change /veh CASKIN2 (11723855_a_at) / RFU LOC730098 (11760151_x_at) / Fold change /veh LOC730098 (11760151_x_at) / RFU OR4N2 (11742367_at) / Fold change /veh OR4N2 (11742367_at) / RFU PRRT2 (11749266_a_at) / Fold change /veh PRRT2 (11749266_a_at) / RFU SNX32 (11753110_a_at) / Fold change /veh SNX32 (11753110_a_at) / RFU CDHR5 (11726645_a_at) / Fold change /veh CDHR5 (11726645_a_at) / RFU RCAN1 (11760418_a_at) / Fold change /veh RCAN1 (11760418_a_at) / RFU FAM167A (11723789_a_at) / Fold change /veh FAM167A (11723789_a_at) / RFU FAM26E (11764081_at) / Fold change /veh FAM26E (11764081_at) / RFU ISYNA1 (11749810_s_at) / Fold change /veh ISYNA1 (11749810_s_at) / RFU ACY1 (11761880_at) / Fold change /veh ACY1 (11761880_at) / RFU 11764098_at / Fold change /veh 11764098_at / RFU SAMD14 (11745864_x_at) / Fold change /veh SAMD14 (11745864_x_at) / RFU NPB (11741838_a_at) / Fold change /veh NPB (11741838_a_at) / RFU TMPRSS6 (11731388_a_at) / Fold change /veh TMPRSS6 (11731388_a_at) / RFU KRTAP10-2 (11738614_at) / Fold change /veh KRTAP10-2 (11738614_at) / RFU ARHGAP8 /// PRR5-ARHGAP8 (11727945_x_at) / Fold change /veh ARHGAP8 /// PRR5-ARHGAP8 (11727945_x_at) / RFU KRTAP5-7 /// NADSYN1 (11734609_at) / Fold change /veh KRTAP5-7 /// NADSYN1 (11734609_at) / RFU RASL12 (11751679_a_at) / Fold change /veh RASL12 (11751679_a_at) / RFU CDKN2B (11736163_a_at) / Fold change /veh CDKN2B (11736163_a_at) / RFU PRF1 (11729649_at) / Fold change /veh PRF1 (11729649_at) / RFU, ZNF638 /// ZNF638-IT1 / Fold change vs veh, ZNF638 /// ZNF638-IT1 / RFU, PANK3 / Fold change vs veh, PANK3 / RFU, SH3YL1 / Fold change vs veh, SH3YL1 / RFU, ZEB2 / Fold change vs veh, ZEB2 / RFU, NRIP1 / Fold change vs veh, NRIP1 / RFU, PTTG1IP / Fold change vs veh, PTTG1IP / RFU, CAPN2 / Fold change vs veh, CAPN2 / RFU, MED14 / Fold change vs veh, MED14 / RFU, SNORA58 / Fold change vs veh, SNORA58 / RFU, C1orf63 / Fold change vs veh, C1orf63 / RFU, LRRFIP1 / Fold change vs veh, LRRFIP1 / RFU, NDUFAF7 / Fold change vs veh, NDUFAF7 / RFU, SLC12A2 / Fold change vs veh, SLC12A2 / RFU, IBTK / Fold change vs veh, IBTK / RFU, ESF1 / Fold change vs veh, ESF1 / Fold change vs veh, TMEM50B / RFU, TAOK1 / Fold change vs veh, TAOK1 / RFU, ACBD3 / Fold change vs veh, ACBD3 / RFU, TMA16 / Fold change vs veh, TMA16 / RFU, RWDD3 / Fold change vs veh, RWDD3 / RFU, BCAT1 / Fold change vs veh, BCAT1 / RFU, EDEM3 / Fold change vs veh, EDEM3 / RFU, TMEM33 / Fold change vs veh, TMEM33 / RFU, WDR75 / Fold change vs veh, WDR75 / RFU, AHCTF1 / Fold change vs veh, AHCTF1 / RFU, TFRC / Fold change vs veh, TFRC / RFU, ZDHHC17 / Fold change vs veh, ZDHHC17 / RFU, NOM1 / Fold change vs veh, NOM1 / RFU, ARL8B / Fold change vs veh, ARL8B / RFU, ZBTB11 / Fold change vs veh, ZBTB11 / RFU, TAMM41 / Fold change vs veh, TAMM41 / RFU, KIAA1704 /// LOC100996395 / Fold change vs veh, KIAA1704 /// LOC100996395 / RFU, ING1 / Fold change vs veh, ING1 / RFU, TRMT61B / Fold change vs veh, TRMT61B / RFU, FUBP3 / Fold change vs veh, FUBP3 / RFU, TP53 / Fold change vs veh, TP53 / RFU, TNKS2 / Fold change vs veh, TNKS2 / RFU, ZFP14 / Fold change vs veh, ZFP14 / RFU, ACTR2 / Fold change vs veh, ACTR2 / RFU, PPP3R1 / Fold change vs veh, PPP3R1 / RFU, PIK3R1 / Fold change vs veh, PIK3R1 / RFU, HNRNPA1 / Fold change vs veh, HNRNPA1 / RFU, RNF170 / Fold change vs veh, RNF170 / RFU, ZNF28 / Fold change vs veh, ZNF28 / RFU, RNGTT / Fold change vs veh, RNGTT / RFU, OGT / Fold change vs veh, OGT / RFU, BRD1 / Fold change vs veh, BRD1 / RFU, MARS / Fold change vs veh, MARS / RFU, ZNF655 / Fold change vs veh, ZNF655 / RFU, FAHD1 / Fold change vs veh, FAHD1 / RFU, BDP1 / Fold change vs veh, BDP1 / RFU, LRRCC1 / Fold change vs veh, LRRCC1 / RFU, ARID1A / Fold change vs veh, ARID1A / RFU, ZNF146 / Fold change vs veh, ZNF146 / RFU, ZNF330 / Fold change vs veh, ZNF330 / RFU, GPN3 / Fold change vs veh, GPN3 / RFU, C9orf123 / Fold change vs veh, C9orf123 / RFU, N4BP2L2 / Fold change vs veh, N4BP2L2 / RFU, ARFIP1 / Fold change vs veh, ARFIP1 / RFU, FAM179B / Fold change vs veh, FAM179B / RFU, BCL10 / Fold change vs veh, BCL10 / RFU, UHRF1BP1L / Fold change vs veh, UHRF1BP1L / RFU, BET1 / Fold change vs veh, BET1 / RFU, CNOT2 / Fold change vs veh, CNOT2 / RFU, ZNF268 / Fold change vs veh, ZNF268 / Fold change vs veh, ZNF507 / RFU, DGCR2 / Fold change vs veh, DGCR2 / RFU, WDSUB1 / Fold change vs veh, WDSUB1 / Fold change vs veh, HSP90B1 /// MIR3652 / RFU, ADSS / Fold change vs veh, ADSS / RFU, GK / Fold change vs veh, GK / RFU, ZNF148 / Fold change vs veh, ZNF148 / RFU, TAF9 / Fold change vs veh, TAF9 / RFU, SLC1A5 / Fold change vs veh, SLC1A5 / RFU, SLMO2 / Fold change vs veh, SLMO2 / RFU, ABCC4 / Fold change vs veh, ABCC4 / RFU, LOC101060439 /// RAP1B / Fold change vs veh, LOC101060439 /// RAP1B / RFU, RFX7 / Fold change vs veh, RFX7 / RFU, GTPBP10 / Fold change vs veh, GTPBP10 / RFU, CNEP1R1 / Fold change vs veh, CNEP1R1 / RFU, BIVM-ERCC5 /// ERCC5 / Fold change vs veh, BIVM-ERCC5 /// ERCC5 / RFU, ILF3 / Fold change vs veh, ILF3 / RFU 11762660_at / Fold change /veh 11762660_at / RFU VCAN (11757783_s_at) / Fold change /veh VCAN (11757783_s_at) / RFU DDX43 (11728927_at) / Fold change /veh DDX43 (11728927_at) / RFU KRT8 (11758188_x_at) / Fold change /veh KRT8 (11758188_x_at) / RFU NKD1 (11759106_at) / Fold change /veh NKD1 (11759106_at) / RFU SRD5A1 (11742802_a_at) / Fold change /veh SRD5A1 (11742802_a_at) / RFU TPSAB1 /// TPSB2 (11721975_s_at) / Fold change /veh TPSAB1 /// TPSB2 (11721975_s_at) / RFU GSTM3 (11746129_a_at) / Fold change /veh GSTM3 (11746129_a_at) / RFU IL23R (11737362_x_at) / Fold change /veh IL23R (11737362_x_at) / RFU TMEM51 (11727254_a_at) / Fold change /veh TMEM51 (11727254_a_at) / RFU PIWIL2 (11732686_x_at) / Fold change /veh PIWIL2 (11732686_x_at) / RFU ORM1 (11744905_x_at) / Fold change /veh ORM1 (11744905_x_at) / RFU CCDC152 (11743942_at) / Fold change /veh CCDC152 (11743942_at) / RFU ECM1 (11717891_a_at) / Fold change /veh ECM1 (11717891_a_at) / RFU IL23R (11748794_a_at) / Fold change /veh IL23R (11748794_a_at) / RFU TNFAIP8L3 (11732012_x_at) / Fold change /veh TNFAIP8L3 (11732012_x_at) / RFU MBOAT4 (11741988_at) / Fold change /veh MBOAT4 (11741988_at) / RFU 11764193_at / Fold change /veh 11764193_at / RFU TMEM53 (11763286_at) / Fold change /veh TMEM53 (11763286_at) / RFU MAGEB2 (11727129_at) / Fold change /veh MAGEB2 (11727129_at) / RFU TMEM200A (11744735_a_at) / Fold change /veh TMEM200A (11744735_a_at) / RFU CCDC152 (11751479_a_at) / Fold change /veh CCDC152 (11751479_a_at) / RFU FAM211A (11726209_a_at) / Fold change /veh FAM211A (11726209_a_at) / RFU RGS16 (11746705_a_at) / Fold change /veh RGS16 (11746705_a_at) / RFU VCAN (11755009_s_at) / Fold change /veh VCAN (11755009_s_at) / RFU RHOB (11743442_s_at) / Fold change /veh RHOB (11743442_s_at) / RFU RGS16 (11720943_a_at) / Fold change /veh RGS16 (11720943_a_at) / RFU RGS16 (11720944_at) / Fold change /veh RGS16 (11720944_at) / RFU, VPS4B / Fold change vs veh, VPS4B / RFU, CREB1 / Fold change vs veh, CREB1 / RFU, DNAJC13 / Fold change vs veh, DNAJC13 / RFU, GNAQ / Fold change vs veh, GNAQ / RFU, CDK5R1 / Fold change vs veh, CDK5R1 / RFU, ZRANB3 / Fold change vs veh, ZRANB3 / RFU, CUL4A / Fold change vs veh, CUL4A / RFU, CCNY / Fold change vs veh, CCNY / RFU, UFL1 / Fold change vs veh, UFL1 / RFU, COG3 / Fold change vs veh, COG3 / RFU, DIAPH2 / Fold change vs veh, DIAPH2 / RFU, SKA2 / Fold change vs veh, SKA2 / RFU, AFF3 / Fold change vs veh, AFF3 / RFU, LMF1 / Fold change vs veh, LMF1 / RFU, IPO11 / Fold change vs veh, IPO11 / RFU, DFFB / Fold change vs veh, DFFB / RFU, FOXP1 / Fold change vs veh, FOXP1 / RFU, CARD8 / Fold change vs veh, CARD8 / RFU, STRN3 / Fold change vs veh, STRN3 / RFU, ADK / Fold change vs veh, ADK / RFU, RASSF2 / Fold change vs veh, RASSF2 / RFU, WIPF1 / Fold change vs veh, WIPF1 / RFU, LARP1B / Fold change vs veh, LARP1B / RFU, RASA1 / Fold change vs veh, RASA1 / RFU, RB1 / Fold change vs veh, RB1 / RFU, PPFIA1 / Fold change vs veh, PPFIA1 / RFU, MAT2A / Fold change vs veh, MAT2A / RFU, CCT5 / Fold change vs veh, CCT5 / RFU, WDR92 / Fold change vs veh, WDR92 / RFU, CUX1 / Fold change vs veh, CUX1 / RFU, TTC7A / Fold change vs veh, TTC7A / RFU, TMEM135 / Fold change vs veh, TMEM135 / RFU, DEPTOR / Fold change vs veh, DEPTOR / RFU, CPM / Fold change vs veh, CPM / RFU, DNAJB6 / Fold change vs veh, DNAJB6 / RFU, CACNA2D3 / Fold change vs veh, CACNA2D3 / RFU, DTX4 / Fold change vs veh, DTX4 / RFU, TFCP2 / Fold change vs veh, TFCP2 / RFU, GMCL1 /// GMCL1P1 / Fold change vs veh, GMCL1 /// GMCL1P1 / RFU, AEBP2 / Fold change vs veh, AEBP2 / RFU, SNHG1 /// SNORD22 /// SNORD25 /// SNORD26 /// SNORD27 /// SNORD28 /// SNORD29 /// SNORD31 / Fold change vs veh, SNHG1 /// SNORD22 /// SNORD25 /// SNORD26 /// SNORD27 /// SNORD28 /// SNORD29 /// SNORD31 / Fold change (Aza/veh), C12orf56 (ProbeSet 11735607_a_at) / Fold change (ACY-1035/veh), C12orf56 (ProbeSet 11735607_a_at) / Fold change (Aza/veh), FGFR1OP (ProbeSet 11751329_s_at) / Fold change (ACY-1035/veh), FGFR1OP (ProbeSet 11751329_s_at) / Fold change (Aza/veh), VPS36 (ProbeSet 11739960_a_at) / Fold change (ACY-1035/veh), VPS36 (ProbeSet 11739960_a_at) / RFU SYPL1 (11715823_x_at) / Fold change /veh SYPL1 (11715823_x_at) / RFU IGFBP7 (11715501_s_at) / Fold change /veh IGFBP7 (11715501_s_at) / RFU REEP3 (11722064_at) / Fold change /veh REEP3 (11722064_at) / RFU IGLL1 (11728026_x_at) / Fold change /veh IGLL1 (11728026_x_at): dose or concentration left out as unconfirmed", "details": "MV-4-11 cells, 48 hours"}
{"molecule": "Nc1ccc(-c2cccs2)cc1NC(=O)c1ccc2c(c1)cc(C1CC1)n2CCN1CCOCC1", "note": "[ACY-1035]", "values": [{"measurement": "Fold change /veh GSTM3 (11746129_a_at)", "value": 0.96}]}
